Here are results for four molecules from BindingDB's records for PubMed 11454918.

Assay [1] has as its target T1, Alpha-2C adrenergic receptor (Rattus norvegicus, UniProt P22086).
T1 sequence (P22086 whole entry): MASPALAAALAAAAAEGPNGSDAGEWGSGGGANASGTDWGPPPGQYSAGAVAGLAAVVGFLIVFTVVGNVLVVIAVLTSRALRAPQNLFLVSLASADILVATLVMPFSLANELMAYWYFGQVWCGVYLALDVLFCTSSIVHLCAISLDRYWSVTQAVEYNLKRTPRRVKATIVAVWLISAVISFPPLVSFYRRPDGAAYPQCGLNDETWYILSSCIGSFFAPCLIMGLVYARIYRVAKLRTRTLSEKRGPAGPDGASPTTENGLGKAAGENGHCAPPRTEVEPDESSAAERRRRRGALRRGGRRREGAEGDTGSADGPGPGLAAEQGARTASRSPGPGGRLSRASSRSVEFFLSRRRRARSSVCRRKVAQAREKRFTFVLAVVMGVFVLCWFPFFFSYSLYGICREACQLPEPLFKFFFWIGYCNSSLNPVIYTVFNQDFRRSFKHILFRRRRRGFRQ

For assay [2], the target named is 5-hydroxytryptamine receptor 1B (Homo sapiens, UniProt P28222).
Sequence of 5-hydroxytryptamine receptor 1B (P28222 whole entry): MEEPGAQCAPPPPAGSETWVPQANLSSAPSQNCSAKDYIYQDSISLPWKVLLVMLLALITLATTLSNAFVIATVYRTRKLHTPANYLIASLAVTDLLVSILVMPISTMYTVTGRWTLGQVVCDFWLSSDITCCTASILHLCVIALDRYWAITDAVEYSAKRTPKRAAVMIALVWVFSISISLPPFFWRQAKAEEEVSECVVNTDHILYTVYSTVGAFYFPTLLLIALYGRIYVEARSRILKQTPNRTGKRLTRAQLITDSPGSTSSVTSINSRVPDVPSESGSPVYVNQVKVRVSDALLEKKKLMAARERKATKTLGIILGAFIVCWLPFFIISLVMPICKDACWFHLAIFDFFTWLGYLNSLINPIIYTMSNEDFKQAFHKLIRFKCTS
Assay [3] deals with 5-hydroxytryptamine receptor 1D (Homo sapiens, UniProt P28221).
Sequence of 5-hydroxytryptamine receptor 1D (P28221 whole entry): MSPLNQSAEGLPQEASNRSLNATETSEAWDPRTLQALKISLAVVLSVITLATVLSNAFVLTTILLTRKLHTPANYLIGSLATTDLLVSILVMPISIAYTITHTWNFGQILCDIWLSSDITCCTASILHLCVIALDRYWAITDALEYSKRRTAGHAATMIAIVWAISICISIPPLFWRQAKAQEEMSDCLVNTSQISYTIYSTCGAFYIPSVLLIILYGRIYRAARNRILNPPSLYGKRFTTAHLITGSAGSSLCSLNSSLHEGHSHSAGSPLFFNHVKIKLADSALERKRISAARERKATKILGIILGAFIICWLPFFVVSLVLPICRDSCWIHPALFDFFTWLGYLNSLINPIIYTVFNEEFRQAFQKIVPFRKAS
For assay [4], the target named is T2, Alpha-2A adrenergic receptor (Homo sapiens, UniProt P08913).
T2 sequence (P08913 whole entry): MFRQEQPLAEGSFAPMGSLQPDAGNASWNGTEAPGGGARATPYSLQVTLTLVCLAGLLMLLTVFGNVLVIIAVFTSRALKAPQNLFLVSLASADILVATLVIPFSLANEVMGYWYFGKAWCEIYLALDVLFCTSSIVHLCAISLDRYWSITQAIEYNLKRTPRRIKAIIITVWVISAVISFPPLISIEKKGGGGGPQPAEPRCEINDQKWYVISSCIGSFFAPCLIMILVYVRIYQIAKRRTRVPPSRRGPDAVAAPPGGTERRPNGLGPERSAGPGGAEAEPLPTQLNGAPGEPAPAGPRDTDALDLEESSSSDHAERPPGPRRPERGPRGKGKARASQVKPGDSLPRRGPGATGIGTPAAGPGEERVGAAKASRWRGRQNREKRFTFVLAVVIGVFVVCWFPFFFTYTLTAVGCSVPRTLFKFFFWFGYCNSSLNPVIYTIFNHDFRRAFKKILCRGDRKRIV

Assay [5] addresses T3, 5-hydroxytryptamine receptor 1A (Homo sapiens, UniProt P08908).
T3 sequence (P08908 whole entry): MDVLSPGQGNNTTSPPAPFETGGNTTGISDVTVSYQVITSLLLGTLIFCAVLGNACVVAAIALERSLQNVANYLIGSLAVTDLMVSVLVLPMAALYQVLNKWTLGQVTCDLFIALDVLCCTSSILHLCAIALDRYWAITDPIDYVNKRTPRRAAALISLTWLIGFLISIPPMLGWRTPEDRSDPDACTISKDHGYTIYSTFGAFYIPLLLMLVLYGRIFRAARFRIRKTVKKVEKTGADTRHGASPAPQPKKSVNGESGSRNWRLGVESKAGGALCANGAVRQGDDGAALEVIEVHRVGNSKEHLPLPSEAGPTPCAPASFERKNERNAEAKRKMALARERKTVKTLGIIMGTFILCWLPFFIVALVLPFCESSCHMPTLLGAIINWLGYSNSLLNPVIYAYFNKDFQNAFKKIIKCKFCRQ

The target of assay [6] is T4, Alpha-1A adrenergic receptor (Rattus norvegicus, UniProt P43140).
T4 sequence (P43140 whole entry): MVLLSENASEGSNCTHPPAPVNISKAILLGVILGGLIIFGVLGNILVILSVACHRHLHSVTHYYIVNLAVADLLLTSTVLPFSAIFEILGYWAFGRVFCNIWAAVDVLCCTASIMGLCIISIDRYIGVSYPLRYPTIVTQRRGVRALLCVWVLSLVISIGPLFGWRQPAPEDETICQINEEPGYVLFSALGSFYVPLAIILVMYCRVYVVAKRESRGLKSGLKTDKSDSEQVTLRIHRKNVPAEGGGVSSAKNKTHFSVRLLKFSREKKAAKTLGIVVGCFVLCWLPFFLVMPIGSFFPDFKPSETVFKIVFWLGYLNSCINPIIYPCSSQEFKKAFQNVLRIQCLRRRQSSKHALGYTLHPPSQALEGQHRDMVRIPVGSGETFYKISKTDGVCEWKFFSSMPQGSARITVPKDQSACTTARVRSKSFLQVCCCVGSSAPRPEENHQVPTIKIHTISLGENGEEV

The target of assay [7] is T5, Alpha-1A adrenergic receptor (Homo sapiens, UniProt P35348).
T5 sequence (P35348 whole entry): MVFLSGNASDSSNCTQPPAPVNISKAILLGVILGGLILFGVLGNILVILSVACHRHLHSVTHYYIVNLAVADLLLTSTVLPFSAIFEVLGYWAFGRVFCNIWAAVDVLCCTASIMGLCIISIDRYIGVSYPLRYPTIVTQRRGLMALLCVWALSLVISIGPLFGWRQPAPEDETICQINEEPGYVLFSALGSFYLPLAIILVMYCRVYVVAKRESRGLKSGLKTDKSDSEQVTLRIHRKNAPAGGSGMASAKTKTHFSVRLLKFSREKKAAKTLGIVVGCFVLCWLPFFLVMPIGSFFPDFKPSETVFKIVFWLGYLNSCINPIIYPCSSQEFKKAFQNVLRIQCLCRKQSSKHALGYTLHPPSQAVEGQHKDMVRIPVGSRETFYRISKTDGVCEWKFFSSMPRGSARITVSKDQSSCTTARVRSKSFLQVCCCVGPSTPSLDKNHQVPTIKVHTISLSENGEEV

Assay [8] deals with Sodium-dependent dopamine transporter (Homo sapiens, UniProt Q01959).
Sequence of Sodium-dependent dopamine transporter (Homo sapiens, UniProt Q01959) (Q01959 whole entry): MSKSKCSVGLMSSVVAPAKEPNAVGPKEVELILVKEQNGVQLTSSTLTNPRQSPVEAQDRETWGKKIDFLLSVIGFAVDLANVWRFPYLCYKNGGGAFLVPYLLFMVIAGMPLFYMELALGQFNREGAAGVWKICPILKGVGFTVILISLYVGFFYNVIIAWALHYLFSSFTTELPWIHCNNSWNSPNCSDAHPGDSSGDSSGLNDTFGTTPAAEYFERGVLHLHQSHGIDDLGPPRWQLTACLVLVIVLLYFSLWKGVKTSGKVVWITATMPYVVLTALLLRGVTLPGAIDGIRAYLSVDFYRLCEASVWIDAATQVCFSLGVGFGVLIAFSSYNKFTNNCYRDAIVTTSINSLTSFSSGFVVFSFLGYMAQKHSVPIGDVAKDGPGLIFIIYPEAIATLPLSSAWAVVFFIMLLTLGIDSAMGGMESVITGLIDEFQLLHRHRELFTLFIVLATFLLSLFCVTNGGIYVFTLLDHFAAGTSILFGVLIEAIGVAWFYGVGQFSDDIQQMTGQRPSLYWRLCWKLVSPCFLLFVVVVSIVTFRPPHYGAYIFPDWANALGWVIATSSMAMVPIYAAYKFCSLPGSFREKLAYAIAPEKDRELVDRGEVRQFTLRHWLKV
Assay [9] addresses Sodium-dependent dopamine transporter (Rattus norvegicus, UniProt P23977).
The target of assay [10] is T6, 5-hydroxytryptamine receptor 2C (Homo sapiens, UniProt P28335).
T6 sequence (P28335 whole entry): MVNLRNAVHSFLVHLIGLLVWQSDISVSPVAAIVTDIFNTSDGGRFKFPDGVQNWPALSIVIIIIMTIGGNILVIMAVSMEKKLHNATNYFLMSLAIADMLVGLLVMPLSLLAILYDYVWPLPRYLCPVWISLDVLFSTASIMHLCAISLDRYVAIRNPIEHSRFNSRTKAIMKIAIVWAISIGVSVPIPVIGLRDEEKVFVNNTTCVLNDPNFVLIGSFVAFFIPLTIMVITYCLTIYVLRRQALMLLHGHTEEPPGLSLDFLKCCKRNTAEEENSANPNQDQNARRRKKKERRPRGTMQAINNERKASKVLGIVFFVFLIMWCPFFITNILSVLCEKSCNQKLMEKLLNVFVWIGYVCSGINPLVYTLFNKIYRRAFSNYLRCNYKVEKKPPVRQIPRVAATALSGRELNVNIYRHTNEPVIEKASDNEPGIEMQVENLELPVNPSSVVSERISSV

A further assay has as its target D(2) dopamine receptor (Homo sapiens, UniProt P14416).
Assay [11] deals with Sodium-dependent serotonin transporter (Rattus norvegicus, UniProt P31652).
Sequence of Sodium-dependent serotonin transporter (P31652 whole entry): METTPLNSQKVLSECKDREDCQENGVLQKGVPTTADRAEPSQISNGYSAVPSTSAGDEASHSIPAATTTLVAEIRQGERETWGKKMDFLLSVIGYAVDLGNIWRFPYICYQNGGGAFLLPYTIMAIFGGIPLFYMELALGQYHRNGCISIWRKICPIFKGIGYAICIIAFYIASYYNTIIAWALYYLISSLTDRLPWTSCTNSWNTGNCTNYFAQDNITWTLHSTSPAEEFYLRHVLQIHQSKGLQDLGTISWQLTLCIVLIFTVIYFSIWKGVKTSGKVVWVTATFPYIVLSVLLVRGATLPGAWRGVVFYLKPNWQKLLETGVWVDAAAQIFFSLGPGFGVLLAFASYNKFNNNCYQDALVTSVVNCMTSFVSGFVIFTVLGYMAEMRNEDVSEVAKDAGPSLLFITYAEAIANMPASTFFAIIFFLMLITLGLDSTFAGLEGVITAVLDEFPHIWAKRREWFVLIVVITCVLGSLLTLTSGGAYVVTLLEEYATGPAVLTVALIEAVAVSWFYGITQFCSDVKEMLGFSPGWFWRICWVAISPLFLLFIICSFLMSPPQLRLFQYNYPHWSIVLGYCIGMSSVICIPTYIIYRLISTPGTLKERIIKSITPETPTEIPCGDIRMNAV
Assay [12] deals with Norepinephrine transporter (Rattus norvegicus, UniProt Q9JIA2).
Assay [13] addresses Sodium-dependent noradrenaline transporter (Homo sapiens, UniProt P23975).

Structures can show the parent of a compound that is named as a salt.

Sequence of D(2) dopamine receptor (P14416 whole entry): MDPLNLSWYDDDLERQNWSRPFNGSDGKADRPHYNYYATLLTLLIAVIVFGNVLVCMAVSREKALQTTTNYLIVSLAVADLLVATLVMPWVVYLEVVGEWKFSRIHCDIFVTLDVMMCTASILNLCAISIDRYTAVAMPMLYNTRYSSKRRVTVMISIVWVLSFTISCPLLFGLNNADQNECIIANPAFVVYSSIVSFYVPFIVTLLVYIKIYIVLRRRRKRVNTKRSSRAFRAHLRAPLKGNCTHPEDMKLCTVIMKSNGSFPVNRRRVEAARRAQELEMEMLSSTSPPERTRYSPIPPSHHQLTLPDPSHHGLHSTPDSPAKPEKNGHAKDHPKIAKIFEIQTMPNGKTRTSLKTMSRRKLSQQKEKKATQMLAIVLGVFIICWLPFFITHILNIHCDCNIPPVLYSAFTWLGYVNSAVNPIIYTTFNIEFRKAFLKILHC
Sequence of Sodium-dependent dopamine transporter (Rattus norvegicus, UniProt P23977) (P23977 whole entry): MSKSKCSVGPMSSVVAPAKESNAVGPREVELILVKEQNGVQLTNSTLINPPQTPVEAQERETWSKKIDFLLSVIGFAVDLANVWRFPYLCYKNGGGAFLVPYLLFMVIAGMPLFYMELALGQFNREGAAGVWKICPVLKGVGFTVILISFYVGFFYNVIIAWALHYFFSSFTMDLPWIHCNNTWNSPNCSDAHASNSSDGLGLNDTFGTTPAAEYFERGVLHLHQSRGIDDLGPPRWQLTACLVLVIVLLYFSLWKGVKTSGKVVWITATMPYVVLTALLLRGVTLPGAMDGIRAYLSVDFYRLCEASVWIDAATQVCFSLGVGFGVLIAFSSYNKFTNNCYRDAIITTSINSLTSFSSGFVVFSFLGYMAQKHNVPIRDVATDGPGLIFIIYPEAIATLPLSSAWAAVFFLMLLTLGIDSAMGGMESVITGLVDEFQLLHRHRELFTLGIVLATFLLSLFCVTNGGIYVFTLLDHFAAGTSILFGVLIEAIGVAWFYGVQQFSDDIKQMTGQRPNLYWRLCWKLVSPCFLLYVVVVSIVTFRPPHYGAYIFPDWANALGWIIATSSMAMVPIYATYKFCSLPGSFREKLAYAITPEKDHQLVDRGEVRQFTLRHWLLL
Sequence of Sodium-dependent noradrenaline transporter (P23975 whole entry): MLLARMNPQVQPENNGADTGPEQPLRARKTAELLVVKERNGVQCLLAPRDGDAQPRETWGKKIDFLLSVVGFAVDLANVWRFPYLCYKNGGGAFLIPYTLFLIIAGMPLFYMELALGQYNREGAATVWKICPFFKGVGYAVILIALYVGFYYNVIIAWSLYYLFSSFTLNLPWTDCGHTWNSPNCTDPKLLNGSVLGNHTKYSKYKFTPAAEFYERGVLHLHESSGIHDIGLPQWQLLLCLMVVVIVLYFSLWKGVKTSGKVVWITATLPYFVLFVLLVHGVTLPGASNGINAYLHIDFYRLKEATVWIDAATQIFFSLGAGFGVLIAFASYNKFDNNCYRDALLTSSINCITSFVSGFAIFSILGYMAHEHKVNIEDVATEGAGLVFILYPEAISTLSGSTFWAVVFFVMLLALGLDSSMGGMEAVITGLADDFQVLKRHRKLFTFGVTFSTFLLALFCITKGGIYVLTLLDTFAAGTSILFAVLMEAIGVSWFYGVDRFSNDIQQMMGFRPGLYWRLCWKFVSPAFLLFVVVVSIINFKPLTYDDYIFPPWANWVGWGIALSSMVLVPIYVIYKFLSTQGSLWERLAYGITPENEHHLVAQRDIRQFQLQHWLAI

Take `CN(C)CCCC1(c2ccc(F)cc2)OCc2cc(C#N)ccc21` (configuration not stated): the Ki in assay [1], in assay [2], in assay [3], in assay [4], in assay [5] and in assay [6] was over 10 µM in each case.

For `CN(C)CCCN1c2ccccc2CCc2ccc(Cl)cc21` [CLOMIPRAMINE HYDROCHLORIDE], the Ki (commonly the dissociation constant of the complex between target and ligand, obtained from inhibition or displacement) in assay [1] was over 10 µM; in assay [2], over 10 µM; in [7] it was 0.0032 µM; in assay [8], 3.02 µM; in assay [3], over 10 µM; in [4], 0.525 µM. For the same molecule, the Ki is 1.23 µM in assay [9], over 10 µM in assay [5], 0.0646 µM in assay [10] and 0.0776 µM at D(2) dopamine receptor.

In the case of `COc1ccc(C(CN(C)C)C2(O)CCCCC2)cc1` (configuration not stated) [NSC_62923], the Ki in [1], in assay [7], in assay [3], in assay [4], in assay [5] and in assay [10] was over 10 µM throughout. The molecule also had a Ki on D(2) dopamine receptor of over 10 µM.

In the case of `COc1ccc2c(c1)C(CN(C)C)(C1(O)CCCCC1)C2` (configuration not stated) [S33005], the Ki in [1], in assay [2], in assay [7], in [8], in assay [3] and in [4] was over 10 µM each time. Also, the inhibition constant (Ki) in assay [11] was 0.00195 µM; in assay [9], over 10 µM; in [5], over 10 µM; in assay [10] it was over 10 µM; in assay [12] it was 0.178 µM; on D(2) dopamine receptor it was over 10 µM. Moreover, the Ki in [13] was 1.51 µM; in assay [6] it was over 10 µM.
